What was measured:
Type in all cases: in vivo
[1] = tested on: persian speedwell (Veronica persica Poiret.); test: Test Example 10: pot soil treatment, growth inhibition of persian speedwell; details: dose 30 g/ha, 21st day after treatment, read-out: Growth inhibition rate (%) of persian speedwell, Measured value
[2] = tested on: common ragweed (Ambrosia artemisiifolia L.); test: Test Example 11: pot soil treatment, growth inhibition of common ragweed; details: dose 10 g/ha, 21st day after treatment, read-out: Growth inhibition rate (%) of common ragweed, Measured value
Description: (§1) On the 14th day after treatment, the state of growth of the summergrass was visually observed to determine the growth inhibition rate in accordance with the following evaluation standard. The growth inhibition rate (%) (measured value) and the growth inhibition rate (%) (calculated value) calculated by the Colby's formula are shown in Table 1. Growth inhibition rate (%)=0 (equivalent to the non-treated area) to 100 (complete kill) Upland field soil was put into a 1/160,000 ha pot, and seeds of common ragweed (Ambrosia artemisiifolia L.) were sown. On the next day, predetermined amounts of flazasulfuron and imazapic were diluted with water (in an amount corresponding to 300 L/ha), and applied for soil treatment by a small sprayer. On the 21st day after treatment, the state of growth of the common ragweed was visually observed to determine the growth inhibition rate. The growth inhibition rate (%) (measured value) and the growth inhibition rate (%) calculated in the same manner as in Test Example 1 are shown in Table 11.

[3] = tested on: summergrass (Digitaria ciliaris (Retz.) Koeler); test: Test Example 1: pot soil treatment, growth inhibition of summergrass; details: dose 10 g/ha, 14th day after treatment, read-out: Growth inhibition rate (%) of summergrass, Measured value
Method: Upland field soil was put into a 1/160,000 ha pot, and seeds of summergrass (Digitaria ciliaris (Retz.) Koeler) were sown. On the next day, predetermined amounts of flazasulfuron and imazapic were diluted with water (in an amount corresponding to 300 L/ha), and applied for soil treatment by a small sprayer. On the 14th day after treatment, the state of growth of the summergrass was visually observed to determine the growth inhibition rate in accordance with the following evaluation standard. The growth inhibition rate (%) (measured value) and the growth inhibition rate (%) (calculated value) calculated by the Colby's formula are shown in Table 1. Growth inhibition rate (%)=0 (equivalent to the non-treated area) to 100 (complete kill)

[4] = tested on: rostrate sesbania(Sesbania rostrata Bremek. & Oberm.); test: Test Example 7: pot soil treatment, growth inhibition of rostrate sesbania; details: 22nd day after treatment, read-out: Growth inhibition rate (%) of rostrate sesbania, Measured value
[5] = tested on: velvetleaf (Abutilon theophrasti MEDIC.); test: Test Example 14: pot soil treatment, growth inhibition of velvetleaf; details: dose 30 g/ha, 21st day after treatment, read-out: Growth inhibition rate (%) of velvetleaf, Measured value
Description: as §1, with “velvetleaf (Abutilon theophrasti MEDIC.)” for “common ragweed (Ambrosia artemisiifolia L.)”, “hexazinone” for “imazapic”, “velvetleaf” for “common ragweed”, “14.” for “11.”

[6] = tested on: common lespedeza (Lespedeza striata (Thunb.) Hook. et Arn.); test: Test Example 12: pot soil treatment, growth inhibition of common lespedeza; details: Kummerowia striata, dose 30 g/ha, 21st day after treatment, read-out: Growth inhibition rate (%) of common lespedeza, Measured value
Description: as §1, with “lespedeza (Lespedeza striata (Thunb.) Hook. et Arn.)” for “ragweed (Ambrosia artemisiifolia L.)”, “lespedeza” for “ragweed”, “12.” for “11.”

[7] = tested on: guinea grass (Panicum maximum Jacq.); test: Test Example 4: pot soil treatment, growth inhibition of guinea grass; details: Megathyrsus maximus, dose 10 g/ha, 22nd day after treatment, read-out: Growth inhibition rate (%) of guinea grass, Measured value
Description: as §1, with “guinea grass (Panicum maximum Jacq.)” for “common ragweed (Ambrosia artemisiifolia L.)”, “mesotrione” for “imazapic”, “22nd” for “21st”, “guinea grass” for “common ragweed”, “4.” for “11.”

[8] = tested on: field bindweed (Convolvulus arvensis L.); test: Test Example 15: pot soil treatment, growth inhibition of field bindweed; details: dose 30 g/ha, 21st day after treatment, read-out: Growth inhibition rate (%) of field bindweed, Measured value
Description: as §1, with “field bindweed (Convolvulus arvensis” for “common ragweed (Ambrosia artemisiifolia”, “flazasulfuron, mesotrione” for “flazasulfuron”, “field bindweed” for “common ragweed”, “15.” for “11.”

SMILES: COc1cc(OC)nc(NC(=O)NS(=O)(=O)c2ncccc2C(F)(F)F)n1 [Flazasulfuron, flazasulfuron]
- inhibition at 30 g/ha [1]: 15%
- inhibition at 10 g/ha [2]: 80%
- inhibition at 10 g/ha [3]: 15%
- inhibition at 50 g/ha [4]: 35%
- inhibition at 30 g/ha [5]: 20%
- inhibition at 30 g/ha [6]: 90%
- inhibition at 10 g/ha [7]: 0%
- inhibition at 30 g/ha [8]: 0%
